Measured values as given in patent US20080051416A1, “Novel Compounds” (SMITHKLINE BEECHAM CORPORATION, priority 2004, published 2008).

Experiments:
[1] = biological target: p38 (Homo sapiens, UniProt Q16539); assay: Fluorescence Anisotropy Kinase Binding Assay; conditions: p38 enzyme 12 nM, fluorescent ligand 5 nM
Procedure: Fluorescence Anisotropy Kinase Binding Assay
The concentration of kinase enzyme should preferably be ≧1×Kf. The concentration of fluorescent ligand required will depend on the instrumentation used, and the fluorescent and physicochemical properties. The concentration used must be lower than the concentration of kinase enzyme, and preferably less than half the kinase enzyme concentration. A typical protocol is:
All components dissolved in Buffer of final composition 62.5 mM HEPES, pH 7.5, 1.25 mM CHAPS, 1.25 mM DTT, 12.5 mM MgCl2 3.3% DMSO.
p38 Enzyme concentration: 12 nM
Fluorescent ligand concentration: 5 nM
Test compound concentration: 0.1 nM-100 uM
Components incubated in 30 ul final volume in NUNC 384 well black microtitre plate until equilibrium reached (5-30 mins)
Fluorescence anisotropy read in LJL Acquest.
Definitions: Ki=dissociation constant for inhibitor binding
• Kf=dissociation constant for fluorescent ligand binding
The fluorescent ligand is the following compound: [drawing 22] which is derived from 5-[2-(4-aminomethylphenyl)-5-pyridin-4-yl-1H-imidazol-4-yl]-2-chlorophenol and rhodamine green. Results

[2] = biological target: T1, Recombinant human p38α (Homo sapiens, UniProt Q16539); assay: HTRF Assay: Time-Resolved Fluorescence Resonance Energy Transfer Kinase Assay; assay type: biochemical; conditions: TR-FRET; MKK6-activated p38α 100 pM, biotinylated-GST-ATF2 substrate
T1 construct: His; made in house
Procedure: Time-Resolved Fluorescence Resonance Energy Transfer Kinase Assay
Recombinant human p38α was expressed as a His-tagged protein. To activate this protein, 3 μM unactivated p38α was incubated in 200 mM Hepes pH7.4, 625 mM NaCl, 1 mM DTT with 27 nM active MKK6 (Upstate), 1 mM ATP and 10 mM MgCl2. The activity of the MKK6-activated p38α was assessed using a time-resolved fluorescence resonance energy transfer (TR-FRET) assay.
Biotinylated-GST-ATF2 (residues 19-96, 400 nM final), ATP ([…] final) and MgCl2 (5 mM final) in assay buffer (40 mM HEPES pH 7.4, 1 mM DTT) were added to wells containing […] of various concentrations of compound or DMSO vehicle (3% final) in NUNC 384 well black plate. The reaction was initiated by the addition of MKK6-activated p38 (100 pM final) to give a total volume of 30 μl. Alternatively, various concentrations of compound were incubated with activated p38 for up to 90 min, followed by initiation with the addition of ATF2, ATP and MgCl2. The reaction was incubated for 120 minutes at room temperature, then terminated by the addition of 15 μl of 100 mM EDTA pH 7.4. Detection reagent (15 μl) in buffer (100 mM HEPES pH 7.4, 150 mM NaCl, 0.1% w/v BSA, 1 mM DTT) containing antiphosphothreonine-ATF2-71 polyclonal antibody (Cell Signalling Technology, Beverly Mass., USA) labelled with W-1024 europium chelate (Wallac OY, Turku, Finland), and APC-labelled streptavidin (Prozyme, San Leandro, Calif., USA) was added and the reaction was further incubated for 60 minutes at room temperature. The degree of phosphorylation of GST-ATF2 was measured using a Packard Discovery plate reader (Perkin-Elmer Life Sciences, Pangbourne, UK) as a ratio of specific 665 nm energy transfer signal to reference europium 620 nm signal. Differences in IC50 with or without preincubation of enzyme with compound was interpreted as time-dependence.

[3] = tested on: TGF-β-induced increases in fibronectin and thrombospondin; conditions: literature, Laping et al., 2002; cited from earlier work

Chain of p38 (Q16539 whole entry): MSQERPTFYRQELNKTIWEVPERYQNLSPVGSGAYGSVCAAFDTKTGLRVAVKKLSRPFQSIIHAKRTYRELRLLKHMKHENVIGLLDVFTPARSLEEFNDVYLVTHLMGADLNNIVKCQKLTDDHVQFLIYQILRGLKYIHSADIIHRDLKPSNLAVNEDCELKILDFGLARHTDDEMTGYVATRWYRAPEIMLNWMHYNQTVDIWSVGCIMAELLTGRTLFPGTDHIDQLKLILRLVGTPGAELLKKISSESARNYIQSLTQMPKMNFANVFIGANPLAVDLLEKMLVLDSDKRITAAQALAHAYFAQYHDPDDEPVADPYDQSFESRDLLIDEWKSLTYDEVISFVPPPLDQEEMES
T1 sequence (Q16539 whole entry): as above

SMILES | melting point | IC50 [1] [nM] | IC50 [2] [nM] | inhibition of TGF-β-induced increases in fibronectin and thrombospondin [3]
Cc1c(F)cc(C(=O)NCC2CC2)cc1-c1ccc(C(=O)NCC(C)(C)C)cc1C(=O)Nc1nccs1 [Example 15, N^3′-(cyclopropylmethyl)-N^4-(2,2-dimethylpropyl)-5′-fluoro-6′-methyl-N^2-1,3-thiazol-2-yl-2,3′,4-biphenyltricarboxamide] | 179 to 183 °C |  |  | 
Cc1c(F)cc(C(=O)NCCC(C)C)cc1-c1ccc(C(=O)NCC(C)(C)C)cc1C(=O)Nc1nccs1 [Example 16, N^4-(2,2-dimethylpropyl)-5′-fluoro-6′-methyl-N^3′-(3-methylbutyl)-N^2-1,3-thiazol-2-yl-2,3′,4-biphenyltricarboxamide] | 159 to 164 °C |  |  | 
Cc1c(F)cc(C(=O)N[C@H](C)C(C)C)cc1-c1ccc(C(=O)NCC(C)(C)C)cc1C(=O)Nc1nccs1 [Example 13, N^3′-[(1R)-1,2-dimethylpropyl]-N4-(2,2-dimethylpropyl)-5′-fluoro-6′-methyl-N^2-1,3-thiazol-2-yl-2,3′,4-biphenyltricarboxamide] | 240 to 244 °C | > 1580 | > 1580 | 
Cc1c(F)cc(C(=O)N[C@@H](C)C(C)(C)C)cc1-c1ccc(C(=O)NCC(C)(C)C)cc1C(=O)Nc1nccs1 [Example 25, N^4-(2,2-dimethylpropyl)-5′-fluoro-6′-methyl-N^2-1,3-thiazol-2-yl-N^3′-[(1S)-1,2,2-trimethylpropyl]-2,3′,4-biphenyltricarboxamide] | 160 to 165 °C | > 1580 | > 1580 | 
Cc1c(F)cc(C(=O)N[C@H](C)C(C)(C)C)cc1-c1ccc(C(=O)NCC(C)(C)C)cc1C(=O)Nc1nccs1 [Example 10, N^4-(2,2-dimethylpropyl)-5′-fluoro-6′-methyl-N^2-1,3-thiazol-2-yl-N^3′-[(1R)-1,2,2-trimethylpropyl]-2,3′,4-biphenyltricarboxamide] | > 125 °C (dec.) | > 1580 | > 1580 | 
Cc1c(F)cc(C(=O)NCC(C)C)cc1-c1ccc(C(=O)NCC(C)(C)C)cc1C(=O)Nc1nccs1 [Example 14, N^4-(2,2-dimethylpropyl)-5′-fluoro-6′-methyl-N^3′-(2-methylpropyl)-N^2-1,3-thiazol-2-yl-2,3′,4-biphenyltricarboxamide] | > 194 °C (dec.) |  |  | 
COC(=O)c1cc(C(=O)NCC(C)(C)C)ccc1-c1cc(C(=O)NCCO)ccc1C [Example 78, methyl 4-{[(2,2-dimethylpropyl)amino]carbonyl}-5′-{[(2-hydroxyethyl)amino]carbonyl}-2′-methyl-2-biphenylcarboxylate] |  | > 15800 |  | 
Cc1c(F)cc(C(=O)N[C@@H](C)C(C)C)cc1-c1ccc(C(=O)NCC(C)(C)C)cc1C(=O)Nc1nccs1 [Example 12, N^3′-[(1S)-1,2-dimethylpropyl]-N^4-(2,2-dimethylpropyl)-5′-fluoro-6′-methyl-N^2-1,3-thiazol-2-yl-2,3′,4-biphenyltricarboxamide] | 234 to 239 °C | > 1580 | > 1580 | 
Cc1ccc(C(=O)NCCO)cc1-c1ccc(C(=O)NCC(C)(C)C)cc1C(=O)O [Example 86, 4-{[(2,2-dimethylpropyl)amino]carbonyl}-5′-{[(2-hydroxyethyl)amino]carbonyl}-2′-methyl-2-biphenylcarboxylic acid] |  | > 15800 | > 25100 | 
Cc1c(F)cc(C(=O)N[C@H](C)CO)cc1-c1ccc(C(=O)NCC(C)(C)C)cc1C(N)=O [Example 75, N^4-(2,2-dimethylpropyl)-5′-fluoro-N^3′-[(1R)-2-hydroxy-1-methylethyl]-6′-methyl-2,3′,4-biphenyltricarboxamide] |  | > 15800 | > 1580 | 
COc1nccc(-c2c(-c3ccc(F)cc3)ncn2C2CCNCC2)n1 [SB-242235] |  |  |  | inhibited
